What all share (format): in vivo
Data set [1] has as its system Glycine max. In words: Herbicide damage to crops in dry field, spraying treatment on soil before sprouting (Test Example 4, Table 12). The following applies: 80 g ai/ha, rated after 3 weeks. As to the method:
(§1) The formulations of active compounds were obtained as emulsions by mixing 1 part by weight of the active compound with the carrier and emulsifier in the described amounts. The formulations were diluted with water so as to adjust a prescribed dosage.
(§2) In a greenhouse seeds of rice (cultivar: Balilla) and weeds (Brachiaria plantaginea, Cyperus esculntus, Cyperus iria L., Echinochloa colonum, Leptochloa chinensis, Ipomoea purpurea, and Sesbania exaltata) were inoculated on the surface layers of pots filled with 100 cm^2 of paddy field soil and covered with soil. Water was poured to produce wet state (water level 0 cm). The prescribed diluted solutions of the formulations of the respective active compounds obtained in the same manner as in Test Example 1 were sprayed on the soil of some pots on completion of the seeding and the solutions of the agents were sprayed over the plants from the above in the rest of the pots after the respective sample plants were grown in first- to third-1 eaf stage in the greenhouse. After one day from the treatment with the compound, water was poured in 3 cm depth. The herbicidal effects and herbicide damage on rice of the respective compounds were investigated after 3 weeks from the treatment. The herbicidal effect and herbicide damage on the rice were rated as 100% in the case of complete withering and 0% in the case of no herbicidal effect or no harm. When herbicidal effect was 80% or higher, it was determined to be practically applicable as herbicides. When the herbicide damage was 20% or lower, the safety of the herbicide was evaluated to be excellent.
(§3) In a greenhouse one seed each of crops in dry field (Triticum aestivum and Glycine max) and weeds (Echinochloa crus-gali and Setaria vividis) were inoculated in the surface layer in one pot filled with 16 cm^2 of dry field soil and covered with soil. The prescribed diluted solutions of the formulations of the respective active compounds obtained in the same manner as in Test Example 1 were sprayed to the soil upon the inoculation. The herbicidal effect and herbicide damage on crops of the respective compounds were investigated after 3 weeks from the treatment. Evaluations of the herbicidal effect and herbicide damage were carried out in the same manner as in Test Example 3. As the representative example, the test results of compound No. 1 and 24, and the comparative compound C-1 are shown in Table 12.

Data set [2] deals with Triticum aestivum. The description is as above. The following applies: 80 g ai/ha, rated after 3 weeks. As to the method:
as §1, §2, §3

The test system of data set [3] is Echinochloa crus-gali. The data set is described as follows: Herbicidal effect on weeds in dry field, spraying treatment on soil before sprouting (Test Example 4, Table 12). The note with it: 80 g ai/ha, spraying to soil before sprouting, rated after 3 weeks. As to the method:
as §1, §2, §3

In data set [4] the test system is Setaria vividis. The description is as above. The note with it: 80 g ai/ha, spraying to soil before sprouting, rated after 3 weeks. As to the method:
as §1, §2, §3

Data set [5] has as its system Lindernia procumbens Philcox (resistant to sulfonylurea type herbicide). In words: Herbicidal efficacy test to weeds resistant to sulfonylurea type herbicide (Test Example 1, applied on water surface, Table 8). The note with it: 60 g ai/ha, applied on water surface at beginning of sprouting, rated after 3 weeks; 100% = complete withering, 0% = no effect. Here is the method: (§4) Preparation of formulation of active compound
(§5) Carrier: DMF 5 parts by weight
(§6) Emulsifier: benzyloxypolyglycol ether 1 part by weight
as §1
(§7) In a greenhouse respective seeds of Scirpus juncoides Roxburgh (from Hokkaido, Japan) and Lindernia procumbens Philcox (from Saitama, Japan), which are confirmed to have resistance to a sulfonylurea type herbicide, were inoculated in pots filled with 500 cm^2 of paddy field soil and water was poured to the pot in about 2 to 3 cm depth. At the beginning of sprouting of the weeds, prescribed diluted solutions of the formulations of the respective active compounds obtained by the above-mentioned manner were applied on the water surface. After the treatment water depth of 3 cm was kept. The herbicidal effect was investigated after 3 weeks of the treatment. The herbicidal effect was rated as 100% in the case of complete withering and 0% in the case of no herbicidal effect. When the herbicidal effect was 80% or higher, the practical effectiveness as herbicides is recognized. As the representative examples, the test results of the compound Nos. 1, 3, 4, 5, 6, 7, 13, 70, 127, 128 and 130 are shown in Table 8.

The test system of data set [6] is Scirpus juncoides Roxburgh (resistant to sulfonylurea type herbicide). The data set is described as above. The note with it: 60 g ai/ha, applied on water surface at beginning of sprouting, rated after 3 weeks; 100% = complete withering, 0% = no effect. Here is the method:
as §4, §5, §6, §1, §7

In data set [7] the test system is paddy rice seedlings (cultivar: Nihonbare). In words: Herbicide damage on transplanted paddy rice (Test Example 2, Table 9). The following applies: 60 g ai/ha, applied to water surface 5 days after transplantation, rated after 3 weeks; 100% = complete withering, 0% = no damage. As to the method:
as §1
In a greenhouse each three paddy rice seedlings (cultivar: Nihonbare) were transplanted (transplantation depth 2 cm) in each pot filled with 500 cm^2 of paddy field soil and covered with water in about 2 to 3 cm depth. After 5 days from the transplantation, prescribed diluted solutions of the formulations of the respective active compounds obtained in the same manner as in Test Example 1 were applied to the water surface of each pot. After the treatment, the water depth of 3 cm was kept. The herbicide damage was investigated after 3 weeks of the treatment. The herbicide damage was rated as 100% in the case of complete withering and 0% in the case of no herbicide damage. When the herbicide damage was 20% or lower, the safety as a paddy rice herbicide was evaluated to be excellent. As the representative examples, the test results of the compound Nos. 3, 4, 5, 6, 7, 70, 115, 127 and 128, and comparative compound C-2 are shown in Table 9.

For data set [8], the system named is rice (cultivar: Balilla). The data set is described as follows: Irrigated directly seeded paddy rice, herbicide damage, spraying to soil before sprouting (Test Example 3, Table 10). The following applies: 20 g ai/ha, rated after 3 weeks. Here is the method: as §1, §2
In data set [9] the test system is Brachiaria plantaginea. In words: Irrigated directly seeded paddy rice, herbicidal effect, spraying to soil before sprouting (Test Example 3, Table 10). The note with it: 20 g ai/ha, rated after 3 weeks. Here is the method:
as §1, §2

Data set [10] deals with Cyperus esculntus. The description is as above. The note with it: 20 g ai/ha, rated after 3 weeks. Here is the method:
as §1, §2

The subject of data set [11] is Cyperus iria L. Described as above. The following applies: 20 g ai/ha, rated after 3 weeks. As to the method: as §1, §2
Data set [12] concerns Echinochloa colonum. Described as above. The following applies: 20 g ai/ha, rated after 3 weeks. As to the method: as §1, §2
Data set [13] deals with Ipomoea purpurea. Described as above. The following applies: 20 g ai/ha, rated after 3 weeks. As to the method: as §1, §2
The subject of data set [14] is Leptochloa chinensis. The data set is described as above. The following applies: 20 g ai/ha, rated after 3 weeks. As to the method:
as §1, §2

Data set [15] deals with Sesbania exaltata. Described as above. The note with it: 20 g ai/ha, rated after 3 weeks. As to the method:
as §1, §2

In data set [16] the test system is rice (cultivar: Balilla). In words: Irrigated directly seeded paddy rice, herbicide damage, spraying to stems and leaves after sprouting (Test Example 3, Table 11). The following applies: 20 g ai/ha, rated after 3 weeks. As to the method: as §1, §2
Data set [17] relates to Brachiaria plantaginea. In words: Irrigated directly seeded paddy rice, herbicidal effect, spraying to stems and leaves after sprouting (Test Example 3, Table 11). The following applies: 20 g ai/ha, rated after 3 weeks. As to the method:
as §1, §2

In data set [18] the test system is Cyperus esculntus. The description is as above. The note with it: 20 g ai/ha, rated after 3 weeks. Here is the method: as §1, §2
Data set [19] deals with Cyperus iria L. The data set is described as above. The following applies: 20 g ai/ha, rated after 3 weeks. As to the method: as §1, §2
The test system of data set [20] is Echinochloa colonum. The description is as above. The following applies: 20 g ai/ha, rated after 3 weeks. Here is the method: as §1, §2
In data set [21] the test system is Ipomoea purpurea. The data set is described as above. The note with it: 20 g ai/ha, rated after 3 weeks. As to the method: as §1, §2
For data set [22], the system named is Sesbania exaltata. The description is as above. The note with it: 20 g ai/ha, rated after 3 weeks. Here is the method: as §1, §2

`COCN(c1c(F)cccc1C(=O)c1nc(OC)nc(OC)n1)S(=O)(=O)C(F)F` [compound 24]: in [1], the “Herbicide damage Glycine max” value is 0%. Also, in data set [2], the “Herbicide damage Triticum aestivum” value turned out to be 0%. The “Herbicidal effect Echinochloa crus-gali” value in data set [3] turned out to be 80%. Besides, in data set [4], the “Herbicidal effect Setaria vividis” value is recorded as 90%.
As to `CCOc1ccccc1OS(=O)(=O)NC(=O)Nc1nc(OC)cc(OC)n1` [C-3, Ethoxysulfuron, reference compound], the “Herbicidal effect to sulfonylurea resistant weeds: Lindernia procumbens Philcox (from Saitama pref.)” value (“Herbicidal effect … (from Saitama pref.)” below) in data set [5] came to 10%. In addition, in data set [6], the “Herbicidal effect to sulfonylurea resistant weeds: Scirpus juncoides Roxburgh (from Hokkaido)” value (“Herbicidal effect … (from Hokkaido)” for short) worked out at 10%.
For the molecule `COc1cc(OC)nc(C(O)c2ccc(F)c(C)c2NS(=O)(=O)C(F)F)n1` (stereo not drawn) [compound 70], the “Herbicidal effect … (from Saitama pref.)” value in [5] is given as 90%. For the same molecule, the “Herbicidal effect … (from Hokkaido)” value in [6] came to 100%. Further, the “Herbicide damage on transplanted paddy rice” value in data set [7] is reported as 10%.
On to `COc1nc(OC)nc(C(=O)c2cccc(Cl)c2N(C)S(=O)(=O)C(F)F)n1` [compound 2], for which the results for the “Herbicide damage on Rice” value in data set [8] and in [16] were 30% and 10%, respectively. For the same molecule, the figures for the “Herbicidal effect Brachiaria plantaginea” value in data set [9] and in data set [17] were 80% and 100%, respectively. Also, the “Herbicidal effect Cyperus esculntus” value is given as 90% in data set [10] and 100% in data set [18]. The “Herbicidal effect Cyperusiria L.” value in data set [11] and in [19] was 100% throughout. Besides, the “Herbicidal effect Echinochloa colonum” value in data set [12] came out at 80%; in data set [20] it was 100%. For the same molecule, the “Herbicidal effect Ipomoea purpurea” value in [13] came out at 80%; in data set [21], 100%. The “Herbicidal effect Leptochloa chinensis” value in data set [14] is reported as 90%. Besides, the “Herbicidal effect Sesbania exaltata” value is on record as 80% in data set [15] and 100% in data set [22].
For the molecule `COc1cc(OC)nc(C(O)c2ccc(Cl)c(OC)c2NS(=O)(=O)C(F)F)n1` (stereo not drawn) [compound 128], the “Herbicidal effect … (from Saitama pref.)” value in [5] is 100%. Also, the “Herbicidal effect … (from Hokkaido)” value in [6] was 90%. The “Herbicide damage on transplanted paddy rice” value in data set [7] was 0%.
In the same order, the values of `COc1cc(OC)nc(C(O)c2ccc(F)c(F)c2NS(=O)(=O)C(F)F)n1` (stereo not drawn) [Compound No. 3, 2,3-Difluoro-6-[1-(4,6-dimethoxypyrimidin-2-yl)-1-hydroxymethyl]-N-difluoromethanesulfonanilide] are 100%, 100% and 10%.
For the molecule `CCOc1cccc(C(O)c2nc(OC)cc(OC)n2)c1NS(=O)(=O)C(F)F` (stereo not drawn) [compound 130], the “Herbicidal effect … (from Saitama pref.)” value in data set [5] stood at 100%. In [6], the “Herbicidal effect … (from Hokkaido)” value turned out to be 100%.
As for `COc1cc(OC)nc(C(O)c2c(F)cccc2NS(=O)(=O)C(F)F)n1` (stereo not drawn) [compound 6], the “Herbicidal effect … (from Saitama pref.)” value in data set [5] is 100%. Moreover, the “Herbicidal effect … (from Hokkaido)” value in data set [6] turned out to be 100%. Further, the “Herbicide damage on transplanted paddy rice” value in data set [7] is given as 10%.
Take `COc1nc(OC)nc(C(=O)c2cccc(OC)c2N(C)S(=O)(=O)C(F)F)n1` [compound 115]: the “Herbicide damage on transplanted paddy rice” value in data set [7] is listed as 0%.
Still for that read-out and setting: the same measure for `COCc1cccc(C(O)c2nc(OC)cc(OC)n2)c1NS(=O)(=O)C(F)F` (stereo not drawn) [C-2, reference compound]: 30%.
`COc1cc(OC)nc(C(O)c2ccc(F)c(OC)c2NS(=O)(=O)C(F)F)n1` (stereo not drawn) [compound 127]: the “Herbicidal effect … (from Saitama pref.)” value in [5] worked out at 90%. In [6], the “Herbicidal effect … (from Hokkaido)” value stood at 100%. Further, in [7], the “Herbicide damage on transplanted paddy rice” value was 0%.
`COC(=O)c1ccccc1CS(=O)(=O)NC(=O)Nc1nc(OC)cc(OC)n1` [C-4, Bensulfuron-methyl, reference compound]: the “Herbicidal effect … (from Saitama pref.)” value in data set [5] is 10%. Moreover, the “Herbicidal effect … (from Hokkaido)” value in data set [6] was 10%.
For `COc1cc(OC)nc(C(O)c2ccc(F)cc2NS(=O)(=O)C(F)F)n1` (stereo not drawn) [compound 5], the “Herbicidal effect … (from Saitama pref.)” value in data set [5] is 100%. In data set [6], the “Herbicidal effect … (from Hokkaido)” value was found to be 100%. The “Herbicide damage on transplanted paddy rice” value in data set [7] is listed as 0%.
Regarding `COc1cc(OC)nc(C(O)c2c(F)ccc(F)c2NS(=O)(=O)C(F)F)n1` (stereo not drawn) [compound 7], the “Herbicidal effect … (from Saitama pref.)” value in [5] is 100%. In data set [6], the “Herbicidal effect … (from Hokkaido)” value turned out to be 100%. Further, the “Herbicide damage on transplanted paddy rice” value in [7] was determined as 10%.
For the molecule `COc1cc(OC)nc(C(O)c2ccc(Cl)c(F)c2NS(=O)(=O)C(F)F)n1` (stereo not drawn) [compound 4, 2-fluoro-3-chloro-6-[1-(4,6-dimethoxypyrimidin-2-yl)-1-hydroxymethyl]-N-difluoromethanesulfonanilide], in [5], the “Herbicidal effect … (from Saitama pref.)” value was determined as 100%. Moreover, the “Herbicidal effect … (from Hokkaido)” value in data set [6] is on record as 100%. Moreover, the “Herbicide damage on transplanted paddy rice” value in data set [7] is listed as 10%.

Values taken from patent publication US20090305894A1, “use of sulfonanilides as herbicide” (priority 2005, published 2009).
